The source of these data is US20100075368A1, “Media for recovery of microorganism in the presence of antibiotics” (Millipore Corporation, priority 2004, published 2010).

Holding throughout (format): cell-based
Assay [1] has as its system S. aureus (ATCC 6538). Put plainly: Simulated air monitoring: antibiotic disc zone of inhibition on SCDA. Conditions: Staphylococcus aureus, disc: ofloxacin 5 ug. The procedure: (§1) One method of monitoring air in an antibiotic manufacturing plant is to impact air onto an agar surface collecting both microorganisms and antibiotic on the agar surface. This test was simulated by spreading microorganisms over an agar surface containing varying amounts of magnesium cation and then placing disks containing antibiotics onto the agar surface. The zone of inhibition around each disk was measured to give an indication of the ability of the medium to neutralize the effect of the antibiotic (method followed is similar to the susceptibility disc test used in clinical microbiology). S. aureus (ATCC 6538), P. aeruginosa (ATCC 9027) or E. coli (ATCC 25922) were spread on the agar surface of SCDA containing 0.1M, 0.2M, 0.3M, 0.4M or 0.5M magnesium cation. Discs impregnated with a known amount of antibiotic were then placed onto the bacteria on the agar plate. Plates were incubated and the zone of inhibition of bacterial growth was measured.

The test system of assay [2] is P. aeruginosa (ATCC 9027). Described as above. The conditions noted are these: Pseudomonas aeruginosa, disc: ofloxacin 5 ug. On the procedure: as §1
The subject of another assay is E. coli (ATCC 25922). Described as above. The conditions noted are these: Escherichia coli, disc: ofloxacin 5 ug. On the procedure: as §1
For assay [3], the system named is S. aureus (ATCC 6538). Put plainly: Direct inoculation of SCDB broth tubes, growth in presence of antibiotic. Conditions: ciprofloxacin 100 μg/mL in SCDB, 200 cfu.
Protocol: Test tubes containing SCDB media in the presence or absence of magnesium cation or ciprofloxacin antibiotic were inoculated with 200 colony forming units (cfu) of S. aureus (ATCC 6538). Sample A was used with a ciprofloxacin sample (100 μg/mL) and contained no divalent cation constituent. B was used with ciprofloxacin (100 μg/mL) and contained 0.5 M magnesium cation. C was used with a control and contained 0.5M of the same divalent cation of B. D was used with a control and contained no divalent cation.
The mark [4] stands for this setting: ATCC6538, 0.0 M cation in SCDA, streptomycin 10 ug, doxycycline 30 ug.
The mark [5] stands for this setting: ATCC6538, 0.1M magnesium cation in SCDA, streptomycin 10 ug, doxycycline 30 ug.
Where [6] appears, read: ATCC6538, 0.3M magnesium cation in SCDA, streptomycin 10 ug, doxycycline 30 ug.
The mark [7] stands for this setting: ATCC6538, 0.5M magnesium cation in SCDA, streptomycin 10 ug, doxycycline 30 ug.
[8] abbreviates: ATCC9027, 0.0 M cation in SCDA, streptomycin 10 ug, doxycycline 30 ug.
[9] abbreviates: ATCC9027, 0.1M magnesium cation in SCDA, streptomycin 10 ug, doxycycline 30 ug.
Setting [10] is: ATCC9027, 0.3M magnesium cation in SCDA, streptomycin 10 ug, doxycycline 30 ug.
Setting [11] is: ATCC9027, 0.5M magnesium cation in SCDA, streptomycin 10 ug, doxycycline 30 ug.
The mark [12] stands for this setting: ATCC25922, 0.0 M cation in SCDA, streptomycin 10 ug, doxycycline 30 ug.
[13] abbreviates: ATCC25922, 0.1M magnesium cation in SCDA, streptomycin 10 ug, doxycycline 30 ug.
The mark [14] stands for this setting: ATCC25922, 0.3M magnesium cation in SCDA, streptomycin 10 ug, doxycycline 30 ug.
Setting [15] is: ATCC25922, 0.5M magnesium cation in SCDA, streptomycin 10 ug, doxycycline 30 ug.

A word on the zone of inhibition: it is the size of the clear area around the sample on an inoculated plate. A higher zone of inhibition goes with a stronger effect on the plate. Regarding `C[C@H]1c2cccc(O)c2C(=O)C2=C(O)[C@]3(O)C(=O)C(C(N)=O)=C(O)[C@@H](N(C)C)[C@@H]3[C@@H](O)[C@@H]21` [Doxycycline, doxycycline], the zone of inhibition at 30 µg/disc in the assay with S. aureus (ATCC 6538) [1] (setting [4]) is 25 mm; with S. aureus (ATCC 6538) [1] (setting [5]) it was 13 mm; in the assay on S. aureus (ATCC 6538) [1] (setting [6]) it was 11 mm; in the assay with S. aureus (ATCC 6538) [1] (setting [7]), 13 mm; in assay [2] (setting [8]), 6 mm; in assay [2] (setting [9]) it was 6 mm. Also, the zone of inhibition at 30 µg/disc is 6 mm in assay [2] (setting [10]); 6 mm in assay [2] (setting [11]); 18 mm with E. coli (ATCC 25922) (setting [12]); 6 mm with E. coli (ATCC 25922) (setting [13]); 6 mm in the assay on E. coli (ATCC 25922) (setting [14]); 6 mm with E. coli (ATCC 25922) (setting [15]).
Consider `O=C(O)c1cn(C2CC2)c2cc(N3CCNCC3)c(F)cc2c1=O` [Ciprofloxacin, ciprofloxacin], for which the figures for the “Result (growth of microorganism)” value in the assay with S. aureus (ATCC 6538) [3] (0.5 M magnesium cation added to broth) and in the assay with S. aureus (ATCC 6538) [3] (divalent cation added to broth: None) were “Growth” and “No growth”, respectively.
As for `[H]/N=C(/N)N[C@H]1[C@H](O)[C@@H](O)[C@H](O[C@@H]2O[C@@H](C)[C@](O)(C=O)[C@H]2O[C@@H]2O[C@@H](CO)[C@H](O)[C@@H](O)[C@@H]2NC)[C@@H](N/C(N)=N\[H])[C@@H]1O` [Streptomycin, streptomycin], the zone of inhibition at 10 µg/disc with S. aureus (ATCC 6538) [1] (setting [4]) was 17 mm; with S. aureus (ATCC 6538) [1] (setting [5]), 12 mm; with S. aureus (ATCC 6538) [1] (setting [6]), 7 mm; in the assay with S. aureus (ATCC 6538) [1] (setting [7]), 8 mm; in assay [2] (setting [8]) it was 11 mm; in assay [2] (setting [9]) it was 6 mm. Also, the zone of inhibition at 10 µg/disc in assay [2] (setting [10]) is 6 mm; in assay [2] (setting [11]) it was 6 mm; in the assay on E. coli (ATCC 25922) (setting [12]), 14 mm; in the assay with E. coli (ATCC 25922) (setting [13]) it was 12 mm; in the assay on E. coli (ATCC 25922) (setting [14]) it was 9 mm; in the assay on E. coli (ATCC 25922) (setting [15]) it was 6 mm.
Take `CC1COc2c(N3CCN(C)CC3)c(F)cc3c(=O)c(C(=O)O)cn1c23` (centres unmarked) [Ofloxacin, ofloxacin]: the zone of inhibition at 5 µg/disc with S. aureus (ATCC 6538) [1] (setting [4]) was 23 mm; with S. aureus (ATCC 6538) [1] (setting [5]) it was 11 mm; in the assay with S. aureus (ATCC 6538) [1] (ATCC6538, 0.2M magnesium cation in SCDA), 8 mm; in the assay with S. aureus (ATCC 6538) [1] (setting [6]), 6 mm; in the assay on S. aureus (ATCC 6538) [1] (ATCC6538, 0.4M magnesium cation in SCDA), 7 mm; in the assay with S. aureus (ATCC 6538) [1] (setting [7]), 6 mm. The zone of inhibition at 5 µg/disc in assay [2] (setting [8]) is 20 mm; in assay [2] (setting [9]), 6 mm; in assay [2] (ATCC9027, 0.2M magnesium cation in SCDA), 6 mm; in assay [2] (setting [10]), 6 mm; in assay [2] (ATCC9027, 0.4M magnesium cation in SCDA) it was 6 mm; in assay [2] (setting [11]), 6 mm. The zone of inhibition at 5 µg/disc is 26 mm in the assay on E. coli (ATCC 25922) (setting [12]); 13 mm with E. coli (ATCC 25922) (setting [13]); 13 mm in the assay on E. coli (ATCC 25922) (ATCC25922, 0.2M magnesium cation in SCDA); 13 mm in the assay on E. coli (ATCC 25922) (setting [14]); 12 mm in the assay with E. coli (ATCC 25922) (ATCC25922, 0.4M magnesium cation in SCDA); 12 mm with E. coli (ATCC 25922) (setting [15]).
